Laboratory results reported in patent US20230089368A1, “POLYAROMATIC UREA DERIVATIVES AND THEIR USE IN THE TREATMENT OF MUSCLE DISEASES” (ANAGENESIS BIOTECHNOLOGIES S.A.S., priority 2019, published 2023).
Values belong to the molecule of their own block, whether it stands above or below them.

What was measured:
[1] = tested on: satellite-like cells (Pax7-positive cells) in hMP; assay: Myotube assay: Pax7-positive (satellite-like) cell quantification; type: cell-based, human; design: key to Pax7% (pool of Pax7-positive cells) / Pax7: −: Depletes the pool of cells, while positively affects the myotubes; +: Maintains or increases the pool of cells, with at least 1 of the highest concentration known to be cytotoxic; ++: Maintains or increases the pool of cells, without any toxicity; details: myotube assay, compounds incubated 3 days
Description: (§1) The efficacy of said compound for use in treating, ameliorating, delaying, curing and/or preventing a disease or condition associated with muscle cells and/or satellite cells is positively correlated with the generation of myotubes (i.e. the increase of the area occupied by myotubes on the assay) and/or satellite cells (i.e. the increase of the number of satellite cells) in the assay after adding said compound. The generation of myotubes by the addition of said compound is expressed as the EC50 value, the concentration of said compound that corresponds with the half-maximal generation of myotubes, and the MA (normalized myotube area) value, the normalized area occupied by generated myotubes on the assay. […] Since muscle cells are formed from myotubes during myogenesis, the generation of myotubes in the assay is a good indicator of the ability of said compound to induce the formation of functional muscle cells in vivo. The number of satellite cells is measured as the percentage of Pax7 positive cells, relative to the total number of cells in the assay, as shown in FIG. 3. The percentage of Pax7 is a good indicator of the ability of said compound to induce the formation of satellite cells which are able to play a role in muscle repair and regeneration in vivo.
(§2) DMD human induced pluripotent stem cells (hereafter “DMD hiPSC”), generated from the NORM-1 hiPSC WT cell line by gene editing, or WT human induced pluripotent stem cells (hereafter “WT hiPSC”), being NORM-1 hiPSC wt cell line, have been differentiated according to Chal et al. 2015, 2016, to produce muscle progenitors (hereafter “hMP”). The hMP population contains satellite-like cells (i.e Pax7-positive cells) and satellite cells' progenies (i.e. Myogenin-positive cells).
(§3) FIG. 1 provides an example of a Myotube assay workflow. At day 0, hMP are thawed and 3.1 million cells are plated into a T75-flask coated with hESC-qualified Matrigel™ (Corning) in SkGM proliferating medium (PromoCells), supplemented with 5 μM Y-27632 (Tocris Bioscience). On day 2, SkGM proliferating medium is refreshed. On day 4, hMP are harvested and transferred into a 384-well plate coated with collagen type I at a density of 3500 cells/well in a DMEM-based medium, containing 5% of knockout serum replacement (Gibco), 1% PenStrep (Gibco), 1% MEM NEAA (Gibco) and 0.1 mM 2-mercaptoethanol (Gibco) (hereafter “K5 medium”) and 5 μM Y-27632. Compounds to be tested are then added in the medium and incubated for 3 days at 37° C. On day 7, cells are fixed and immunostained. For example, myotubes (alpha-actinin staining) and satellite-like (Pax7 staining) cells can be analyzed for total myotube area per well or Pax7-positive cell quantification.
(§4) DMD hMP were put in the Myotube assay according to the workflow described in Example 2.1. In particular, compound (i) was added at concentrations ranging from 1.5 nM to 30 μM, starting from day 4. hMP were cultivated for three more days in presence of compound (i), then fixed and analyzed for percentage of Pax7-positive cells and nuclei number. Duplicates of each condition were averaged.
(−): Depletes the pool of cells, while positively affects the myotubes; (+): Maintains or increases the pool of cells, with at least 1 of the highest concentration known to be cytotoxic; and (++) Maintains or increases the pool of cells, without any toxicity.

[2] = tested on: muscle progenitors (hMP) from DMD hiPSC or WT hiPSC; assay: Myotube assay: myogenic activity (total myotube area per well); type: cell-based, human; details: Homo sapiens, 72 h, myotube assay, compounds incubated 3 days; for Emax: read-out: MA (normalized Myotube Area, efficacy); for EC50: 10 points dose-response 1.5 nM to 30 μM, read-out: EC50 (myogenic activity, half-maximal generation of myotubes)
Procedure: An in vitro assay for assessing the efficacy of compounds for use in treating, ameliorating, delaying, curing and/or preventing a disease or condition associated with muscle cells and/or satellite cells is described in example 78. Herein, the generation of myotubes and satellite cells after adding a compound to a myotube assay workflow is assessed. Said myotube assay workflow is derived from wild-type or DMD human induced pluripotent stem cells (WT hiPSC or DMD hiPSC). Before the addition of said compound, the assay comprises satellite-like cells, but no significant amount of myotubes.
as §1, §2, §3
as §4, with “quantification” for “percentage”, “total myotube area per well.” for “Pax7-positive cells and nuclei number.”
Qualitative scale: ++++: EC50<500 nM; +++: 500 nM≤EC50<1000 nM; ++: 1000 nM≤EC50<5000 nM; +: EC50≥5000 nM; +++: MA≥75%; ++: 50%≤MA<75%; +: 25%≤MA<50%.

Structure (SMILES): CSc1cc(Oc2ccnc3[nH]c(=O)cnc23)ccc1NC(=O)Nc1nc(-c2ccc(F)c(F)c2)cs1 [(ax), 1-(4-(3,4-difluorophenyl)thiazol-2-yl)-3-(2-(methylthio)-4-((3-oxo-3,4-dihydropyrido[2,3-b]pyrazin-8-yl)oxy)phenyl)urea]
Pax7% (pool of Pax7-positive cells) [1]: ++
Emax [2]: 50 to 75%

Structure (SMILES): CC(C)(C)c1cc(NC(=O)Nc2cc(Oc3ccnc4[nH]c(=O)cnc34)ccc2F)n(-c2ccccc2)n1 [(cq), 1-(3-(tert-butyl)-1-phenyl-1H-pyrazol-5-yl)-3-(2-fluoro-5-((3-oxo-3,4-dihydropyrido[2,3-b]pyrazin-8-yl)oxy)phenyl)urea]
Pax7% (pool of Pax7-positive cells) [1]: ++
Emax [2]: ≥ 75%

Structure (SMILES): CC(C)(C)c1cc(NC(=O)Nc2ccc(Oc3ccnc4[nH]c(=O)cnc34)cn2)n(-c2ccccc2)n1 [(u), 1-(3-(tert-butyl)-1-phenyl-1H-pyrazol-5-yl)-3-(5-((3-oxo-3,4-dihydropyrido[2,3-b]pyrazin-8-yl)oxy)pyridin-2-yl)urea]
Pax7% (pool of Pax7-positive cells) [1]: ++
Emax [2]: 25 to 50%

Structure (SMILES): CSc1cc(Oc2ccnc3c2CCC(=O)N3)ccc1NC(=O)Nc1cc(C(C)(C)C)nn1-c1ccccc1 [(an), 1-(3-(tert-butyl)-1-phenyl-1H-pyrazol-5-yl)-3-(2-(methylthio)-4-((7-oxo-5,6,7,8-tetrahydro-1,8-naphthyridin-4-yl)oxy)phenyl)urea]
Pax7% (pool of Pax7-positive cells) [1]: ++
Emax [2]: ≥ 75%

Structure (SMILES): CSc1cc(Oc2ccnc3c2CCC(=O)N3)ccc1NC(=O)Nc1cc(C(C)(C)C)nn1-c1cccc(Cl)c1 [(bz), 1-(3-(tert-butyl)-1-(3-chlorophenyl)-1H-pyrazol-5-yl)-3-(2-(methylthio)-4-((7-oxo-5,6,7,8-tetrahydro-1,8-naphthyridin-4-yl)oxy)phenyl)urea]
Pax7% (pool of Pax7-positive cells) [1]: +
Emax [2]: ≥ 75%

Structure (SMILES): CC(C)(C)c1cc(NC(=O)Nc2cccc(Oc3ccnc4[nH]c(=O)cnc34)c2F)n(-c2ccccc2)n1 [(cw), 1-(3-(tert-butyl)-1-phenyl-1H-pyrazol-5-yl)-3-(2-fluoro-3-((3-oxo-3,4-dihydropyrido[2,3-b]pyrazin-8-yl)oxy)phenyl)urea]
Pax7% (pool of Pax7-positive cells) [1]: ++
Emax [2]: ≥ 75%

EC50 [2]: 0.5 to 1 µM
Structure (SMILES): COc1ccc(-n2nc(C(C)(C)C)cc2NC(=O)Nc2ccc(Oc3ccnc4[nH]c(=O)cnc34)cc2SC)cc1 [(aj), 1-(3-(tert-butyl)-1-(4-methoxyphenyl)-1H-pyrazol-5-yl)-3-(2-(methylthio)-4-((3-oxo-3,4-dihydropyrido[2,3-b]pyrazin-8-yl)oxy)phenyl)urea]
Pax7% (pool of Pax7-positive cells) [1]: ++
Emax [2]: ≥ 75%

Structure (SMILES): CC(C)(C)c1cc(NC(=O)Nc2ccc(Oc3ccc(F)cc3)cc2F)n(-c2ccccc2)n1 [(af), 1-(3-(tert-butyl)-1-phenyl-1H-pyrazol-5-yl)-3-(2-fluoro-4-(4-fluorophenoxy)phenyl)urea]
Pax7% (pool of Pax7-positive cells) [1]: ++
Emax [2]: 25 to 50%

Structure (SMILES): CC(C)(C)c1cc(NC(=O)Nc2ccc(Oc3ccnc4[nH]c(=O)cnc34)c3ccccc23)n(-c2ccc3ncccc3c2)n1 [(bb), 1-(3-(tert-butyl)-1-(quinolin-6-yl)-1H-pyrazol-5-yl)-3-(4-((3-oxo-3,4-dihydropyrido[2,3-b]pyrazin-8-yl)oxy)naphthalen-1-yl)urea]
Pax7% (pool of Pax7-positive cells) [1]: +
Emax [2]: ≥ 75%

Structure (SMILES): CSc1cc(Oc2ncnc3[nH]c(=O)cnc23)ccc1NC(=O)Nc1cc(C(C)(C)C)nn1-c1ccccc1 [(bv), 1-(3-(tert-butyl)-1-phenyl-1H-pyrazol-5-yl)-3-(2-(methylthio)-4-((7-oxo-7,8-dihydropteridin-4-yl)oxy)phenyl)urea]
Pax7% (pool of Pax7-positive cells) [1]: ++
Emax [2]: ≥ 75%

Structure (SMILES): CSc1cc(Oc2ccnc3[nH]c(=O)cnc23)ccc1NC(=O)Nc1cc(C(C)(C)C)nn1-c1ccc(CN2CCOCC2)cc1 [(dd), 1-(3-(tert-butyl)-1-(4-(morpholinomethyl)phenyl)-1H-pyrazol-5-yl)-3-(2-(methylthio)-4-((3-oxo-3,4-dihydropyrido[2,3-b]pyrazin-8-yl)oxy)phenyl)urea]
Pax7% (pool of Pax7-positive cells) [1]: +
Emax [2]: ≥ 75%

EC50 [2]: 1 to 5 µM
Structure (SMILES): CSc1cc(Oc2ccnc3[nH]c(=O)cnc23)ccc1NC(=O)Nc1nnc(-c2ccccc2)s1 [(ay), 1-(2-(methylthio)-4-((3-oxo-3,4-dihydropyrido[2,3-b]pyrazin-8-yl)oxy)phenyl)-3-(5-phenyl-1,3,4-thiadiazol-2-yl)urea]
Pax7% (pool of Pax7-positive cells) [1]: ++
Emax [2]: ≥ 75%

Structure (SMILES): CSc1cc(Oc2ccnc3[nH]c(=O)ccc23)ccc1NC(=O)Nc1cc(C(C)(C)C)nn1-c1ccccc1 [(do), 1-(3-(tert-butyl)-1-phenyl-1H-pyrazol-5-yl)-3-(2-(methylthio)-4-((7-oxo-7,8-dihydro-1,8-naphthyridin-4-yl)oxy)phenyl)urea]
Pax7% (pool of Pax7-positive cells) [1]: +
Emax [2]: ≥ 75%

Structure (SMILES): CSc1cc(Oc2ccnc3[nH]c(=O)cnc23)ccc1NC(=O)Nc1cc(C(C)(C)C)nn1-c1ccc(OCCCN(C)C)cc1 [(cr), 1-(3-(tert-butyl)-1-(4-(3-(dimethylamino)propoxy)phenyl)-1H-pyrazol-5-yl)-3-(2-(methylthio)-4-((3-oxo-3,4-dihydropyrido[2,3-b]pyrazin-8-yl)oxy)phenyl)urea]
Pax7% (pool of Pax7-positive cells) [1]: +
Emax [2]: ≥ 75%

Structure (SMILES): CCOC(=O)Nc1cc(Oc2ccc(NC(=O)Nc3cc(C(C)(C)C)no3)c(SC)c2)ccn1 [(de), Ethyl (4-(4-(3-(3-(tert-butyl)isoxazol-5-yl)ureido)-3-(methylthio)phenoxy)pyridin-2-yl)carbamate]
Pax7% (pool of Pax7-positive cells) [1]: +
Emax [2]: ≥ 75%

Structure (SMILES): CNC(=O)c1cc(Oc2ccc(NC(=O)Nc3cc(C(C)(C)C)nn3-c3ccc4ncccc4c3)c(SC)c2)ccn1 [(ag), 4-(4-(3-(3-(tert-butyl)-1-(quinolin-6-yl)-1H-pyrazol-5-yl)ureido)-3-(methylthio)phenoxy)-N-methylpicolinamide]
Pax7% (pool of Pax7-positive cells) [1]: ++
Emax [2]: ≥ 75%

Structure (SMILES): CC(C)(C)c1nc(NC(=O)Nc2ccc(Oc3ccnc4[nH]c(=O)cnc34)cc2F)n(-c2ccccc2)n1 [(p), 1-(3-(tert-butyl)-1-phenyl-1H-1,2,4-triazol-5-yl)-3-(2-fluoro-4-((3-oxo-3,4-dihydropyrido[2,3-b]pyrazin-8-yl)oxy)phenyl)urea]
Pax7% (pool of Pax7-positive cells) [1]: ++
Emax [2]: 25 to 50%

Structure (SMILES): CNC(=O)c1cc(Oc2ccc(NC(=O)Nc3cc(C(C)(C)C)nn3-c3ccc4ncccc4c3)c3ccccc23)ccn1 [(bf), 4-((4-(3-(3-(tert-butyl)-1-(quinolin-6-yl)-1H-pyrazol-5-yl)ureido)naphthalen-1-yl)oxy)-N-methylpicolinamide]
Pax7% (pool of Pax7-positive cells) [1]: +
Emax [2]: ≥ 75%

Structure (SMILES): CCOC(=O)Nc1cc(Oc2ccc(NC(=O)Nc3ncc(C(C)(C)C)s3)c3ccccc23)ccn1 [(dc), Ethyl (4-((4-(3-(5-(tert-butyl)thiazol-2-yl)ureido)naphthalen-1-yl)oxy)pyridin-2-yl)carbamate]
Pax7% (pool of Pax7-positive cells) [1]: +
Emax [2]: ≥ 75%
